Here are results for 16 compounds from patent US6455528B1, “Piperazine compounds and medicinal use thereof” (Mitsubishi Pharma Corporation, priority 1997, dated 2002).

Where a name gives a salt, the structure may show the parent alone.

Usually melting point stands for the temperature, or range, at which the solid turns liquid. As for `CC(=O)NC1(c2ccc(CN3CCN(c4nccs4)CC3)cc2)CC1` [Example 100, N-(1-(4-((4-(Thiazol-2-yl)piperazin-1-yl)methyl)phenyl)cyclopropyl)acetamide], the melting point is 184 to 185 °C.
As for `CC(=O)NC1(c2ccc(C(C)N3CCN(c4ncccn4)CC3)cc2)CC1` (stereo not shown) [Example 70, N-(1-(4-(1-(4-(Pyrimidin-2-yl)piperazin-1-yl)ethyl)phenyl)cyclopropyl)acetamide], the melting point lay within 124 to 125 °C.
To `COc1ccnc(N2CCN(Cc3ccc(C(C)(C)NC(C)=O)cc3)CC2)n1` [Example 106, N-(1-(4-((4-(4-Methoxypyrimidin-2-yl)piperazin-1-yl)methyl)phenyl)-1-methylethyl)acetamide] belongs 160 to 162 °C.
To `CCC(CC)(NC(C)=O)c1ccc(CN2CCN(c3ccccc3)CC2)cc1` [Example 56, N-(1-Ethyl-1-(4-((4-phenylpiperazin-1-yl)methyl)phenyl)propyl)acetamide] belongs 139 to 140 °C.
To `CC(=O)NCc1ccc(CN2CCN(c3nc(Cl)cc(Cl)n3)CC2)cc1` [Example 80, N-(4-((4-(4,6-Dichloropyrimidin-2-yl)piperazin-1-yl)methyl)phenylmethyl)acetamide] belongs 139 to 140 °C.
As for `CC(=O)NCc1ccc(C(C)(C)N2CCN(c3ccc(F)cc3)CC2)cc1` (as salt: hydrochloride) (hydrate or solvate), the melting point was in the range of 179 to 181 °C.
To `CC(=O)NC(C)(C)c1ccc(C(C)N2CCN(c3ccc(F)cc3)CC2)cc1` (stereo not shown) [Example 60, N-(1-(4-(1-(4-(4-Fluorophenyl)piperazin-1-yl)ethyl)phenyl)-1-methylethyl)acetamide] belongs 156 to 157 °C.
The compound `CC(=O)NCc1ccc(CN2CCN(c3nccc(N(C)C)n3)CC2)cc1` [Example 99, N-(4-((4-(4-(N,N-Dimethylamino)pyrimidin-2-yl)piperazin-1-yl)methyl)phenylmethyl)acetamide] gave a melting point of 152 to 155 °C.
To `CC(=O)NC(C)(C)c1ccc(CN2CCN(c3ccccc3)CC2)cc1` [Example 50, N-(1-Methyl-1-(4-((4-phenylpiperazin-1-yl)methyl)phenyl)ethyl)acetamide] belongs 110 to 111 °C.
Turning to `CCOc1cc(F)ccc1N1CCN(Cc2ccc(CNC(C)=O)cc2)CC1` [Example 41, N-(4-((4-(2-Ethoxy-4-fluorophenyl)-piperazin-1-yl)methyl)phenylmethyl)acetamide], the melting point fell in the range of 108 to 109 °C.
`CC(=O)NCc1ccc(CN2CCN(c3ccc(F)cc3C)CC2)cc1` (as salt: hydrochloride): the melting point lay in the range of 115 to 117 °C.
To `CC(=O)NCc1ccc(CN2CCN(c3ncc([N+](=O)[O-])s3)CC2)cc1` [Example 88, N-(4-((4-(5-Nitrothiazol-2-yl)piperazin-1-yl)methyl)phenylmethyl)acetamide] belongs 151 to 152 °C; to `CC(=O)NCc1c(C)cc(CN2CCN(c3ccc(F)cc3)CC2)cc1C` [Example 18, N-(4-(4-(4-Fluorophenyl)piperazin-1-ylmethyl)-2,6-dimethylphenylmethyl)acetamide], 163 to 164 °C; to `CC(=O)NC(C)(C)c1ccc(CN2CCN(c3nccs3)CC2)cc1` [Example 94, N-(1-Methyl-1-(4-((4-(thiazol-2-yl)piperazin-1-yl)methyl)phenyl)ethyl)acetamide], 118 to 120 °C.
To `CC(=O)NCc1ccc(CN2CCN(c3nc(N(C)C)cc(N(C)C)n3)CC2)cc1` [Example 109, N-(4-((4-(4,6-bis(Dimethylamino)-pyrimidin-2-yl)piperazin-1-yl)methyl)phenylmethyl)acetamide] belongs 189 to 190 °C (dec.); to `CC(=O)NCc1ccc(CN2CCN(c3ccncc3)CC2)cc1` [Example 84, N-(4-((4-(Pyridin-4-yl)piperazin-1-yl)methyl)phenylmethyl)acetamide], 164 to 166 °C.
